# Test results as given in publication PMC10643403, “Targeting the Schistosoma mansoni nutritional mechanisms to design new antischistosomal compounds” (Scientific Reports, 2023).
# Where two headings read alike, the source gives them in different places.
# Columns and labels:
# S. mansoni adult worms = test: In vitro antischistosomal assay on adult worms; type: cell-based, Schistosoma mansoni; details: for Activity against 49-day-old S. mansoni worms at 50 µM: adult worms, initial in vitro trial, 72 h; for EC50: Schistosoma mansoni, based on mortality, after 72 h, 95% confidence interval in square brackets
# Method: The antischistosomal assay was performed according to the methodology previously described[16],[19],[20]. Briefly, […], were incubated in flat bottom 24-well plates (Corning, New York, NY, USA) in RPMI 1640 culture medium (Vitrocell, Campinas, SP, Brazil) supplemented with 5% inactivated fetal calf serum, antibiotics (100 U/mL penicillin and 100 μg/mL streptomycin), and buffered with HEPES 25 mM (Sigma-Aldrich, St. Louis, MO, USA). Compounds were dissolved in dimethyl sulfoxide (DMSO at a final concentration of 0.5% v/v) and tested at 50 μM using PZQ 2 μM and DMSO 0.5% as positive and negative controls, respectively. Parasites were kept for 72 h (37 °C, 5% CO2, Panasonic, Osaka, Japan) and their viability was assessed using a Motic AE2000 inverted microscope (Vancouver, Canada)[21]. Each experiment was performed in triplicate and repeated at least three times. The negative control (using the highest concentration of DMSO, i.e., 0.5) and positive control (praziquantel 2 µM) were included.
# Each concentration was tested in five replicates, and experiments were repeated once.
# Vero cells = test: In vitro cytotoxicity assay (MTT) on Vero cells; type: cell-based, African green monkey; details: CC50 on Vero cells divided by EC50 on schistosomes (based on the highest concentration)
# Method: (§1) The life cycle of S. mansoni (Belo Horizonte strain) is maintained through routine passage through Biomphalaria glabrata snails and Swiss mice at the Research Center on Neglected Diseases (Guarulhos University, SP, Brazil). Both rodents and snails were kept under environmentally controlled conditions (25 °C; humidity of 50%), with free access to food and water. Vero cells were obtained from the American Type Culture Collection (ATCC CCL-81; Manassas, VA, USA). Cells were routinely cultured in Dulbecco’s Modified Eagle Medium (DMEM) supplemented with 5% heat-inactivated fetal bovine serum and antibiotics (100 U/mL penicillin and 100 μg/mL streptomycin) at 37 °C in a humidified atmosphere containing 5% CO2 [17].
# (§2) The cytotoxicity of the compounds on the Vero cells was determined by thiazolyl blue tetrazolium bromide (MTT) assay (Sigma-Aldrich) as previously described[21],[24]. […] After 72 h, MTT solution was added to each well and the absorbance at 595 nm was read on a spectrophotometer (Epoch, BioTek Instruments, Winooski, VT, USA).
# [1] = In vitro cytotoxicity assay (MTT) on Vero cells; type: cell-based, African green monkey; details: African green monkey, Vero cells (ATCC CCL-81); Vero cells; MTT assay; 72 h; read-out: Mammalian cells CC50
# Method: as §1, §2
# S. mansoni-infected mice = test: In vivo antiparasitic study in an animal model of schistosomiasis; details: 400 mg/kg single oral dose, vs infected untreated control
# Method: In vivo studies in S. mansoni-infected mice were performed according to standard protocols[20],[26]. Rodents (3 weeks old) were infected subcutaneously with 80 S. mansoni cercariae each and animals were randomly divided into experimental groups (five mice per group). Compounds were dissolved in 2% ethanol in water (v/v) and tested at a single oral dose (400 mg/kg) administered 42 days post-infection[27]. For comparison, praziquantel (400 mg/kg) and a corresponding amount of vehicle were administered to groups of five schistosomes-infected animals in the same period[28],[29]. […] The percentage of worm and egg reduction was calculated by means of the following equation: % reduction = [(value of untreated control group − value of treatment group)/value of untreated control group] × 100%[32]. The nonparametric Kruskal–Wallis test was used to compare the medians of the responses between the treatment and control groups using the GraphPad Prism software (version 8.0; CA, USA). Differences were considered statistically significant at P < 0.05[9].
# Caenorhabditis elegans = type: in vivo; details: L4 stage, 24 h
# Method: Caenorhabditis elegans wild-type (N2 strain), kindly provided by Dr. Carlos E. Winter (University of São Paulo), was routinely cultured at 22 °C on nematode growth medium (NGM) plates seeded with Escherichia coli (strain OP50) as a food source according to standard protocols.
# For the drug assessment, the age-synchronized L1 stage was cultivated on standard NGM plates. When at the L4 stage, approximately 25 nematodes were transferred to each well of a 96-wells NGM plates containing the drug of interest at the desired concentration (10, 25, 50, 100, and 200 μM) along with a positive control (levamisole 10 μM) and a negative control (DMSO 0.5%). Nematodes were kept at 22 °C for 24 h, and their viability was verified microscopically using a Motic AE2000 inverted microscope (Vancouver, Canada) equipped with an ultra-high definition (UHD) camera and with a 48-inch 4K-UHD monitor system (LG Electronics, São Paulo, Brazil)[33].
# [2] = tested on: cathepsin B1 from Schistosoma mansoni (SmCB1); design: method as in ref 2 (Fonseca et al.); details: ref 2 (Fonseca et al.), cited from earlier work
# [3] = tested on: Schistosoma mansoni worms; design: method as in ref 1 (Santiago et al.); details: after 144 h; target not determined; ref 1 (Santiago et al.); cited from earlier work
# [4] = female adult worms, read-out: S. mansoni EC50 Female
# [5] = male adult worms, read-out: S. mansoni EC50 Male
structure (smiles),measurement,setting,value
"Clc1ccc2c(N/N=C/c3ccccc3)ccnc2c1 [GPQF-8Q1, 4-[(2E)-2-benzylidenehydrazinyl]-7-chloroquinoline]",Activity against 49-day-old S. mansoni worms at 50 µM,S. mansoni adult worms,Inactive
same,melting point,,220 to 224 °C
"O=[N+]([O-])c1ccc(/C=N/Nc2ccnc3cc(Cl)ccc23)cc1 [GPQF-8Q3, 7-Chloro-4-[(2E)-2-(4-nitrobenzylidene)hydrazinyl]quinoline]",Activity against 49-day-old S. mansoni worms at 50 µM,S. mansoni adult worms,Inactive
"COc1cc(/C=N/Nc2ccnc3cc(Cl)ccc23)ccc1O [GPQF-8Q4, 4-{(E)-[2-(7-chloroquinolin-4-yl)hydrazinylidene]methyl}-2-methoxyphenol]",Activity against 49-day-old S. mansoni worms at 50 µM,S. mansoni adult worms,Inactive
"O=[N+]([O-])c1ccc(/C=N/Nc2ccnc3cc(Cl)ccc23)o1 [GPQF-8Q6, 7-Chloro-4-{(2E)-2-[(5-nitrofuran-2-yl)methylidene]hydrazinyl}quinoline]",Activity against 49-day-old S. mansoni worms at 50 µM,S. mansoni adult worms,Inactive
"Clc1ccc2c(N/N=C/c3cccs3)ccnc2c1 [GPQF-8Q8, 7-Chloro-4-[(2E)-2-(thiophen-2-ylmethylidene)hydrazinyl]quinoline]",SI (selectivity index),Vero cells,> 5.6
same,CC50 at 72 h,[1],> 200 µM
same,Activity against 49-day-old S. mansoni worms at 50 µM,S. mansoni adult worms,Active
same,EC50,S. mansoni adult worms; [4],28.5 µM
same,EC50,S. mansoni adult worms; [5],35.8 µM
same,Reduction in worm burden,S. mansoni-infected mice; 42 days post-infection,50.8%
same,Reduction in eggs found in feces,S. mansoni-infected mice; Kato-Katz technique,52.8%
same,Reduction in immature eggs found in the intestines,S. mansoni-infected mice; oogram,45.8%
same,Survival percentage of C. elegans,Caenorhabditis elegans; 10 μM,100%
same,Survival percentage of C. elegans,Caenorhabditis elegans; 25 μM,100%
same,Survival percentage of C. elegans,Caenorhabditis elegans; 50 μM,100%
same,Survival percentage of C. elegans,Caenorhabditis elegans; 100 μM,100%
same,Survival percentage of C. elegans,Caenorhabditis elegans; 200 μM,100%
"Cc1ccc(/C=N/Nc2ccnc3cc(Cl)ccc23)cc1 [GPQF-8Q10, 7-Chloro-4-[(2E)-2-(4-methylbenzylidene)hydrazinyl]quinoline]",SI (selectivity index),Vero cells,> 12.8
same,CC50 at 72 h,[1],> 200 µM
same,Time to worm mortality,S. mansoni adult worms; 25 µM,≤ 24 h
same,Activity against 49-day-old S. mansoni worms at 50 µM,S. mansoni adult worms,Active
same,EC50,S. mansoni adult worms; [4],15.6 µM
same,EC50,S. mansoni adult worms; [5],13.3 µM
same,Survival percentage of C. elegans,Caenorhabditis elegans; 10 μM,100%
same,Survival percentage of C. elegans,Caenorhabditis elegans; 25 μM,100%
same,Survival percentage of C. elegans,Caenorhabditis elegans; 50 μM,100%
same,Survival percentage of C. elegans,Caenorhabditis elegans; 100 μM,100%
same,Survival percentage of C. elegans,Caenorhabditis elegans; 200 μM,100%
"Fc1ccc(/C=N/Nc2ccnc3cc(Cl)ccc23)cc1 [GPQF-8Q12, 7-Chloro-4-[(2E)-2-(4-fluorobenzylidene)hydrazinyl]quinoline]",melting point,,236 to 241 °C
"Clc1ccc2c(N/N=C/c3ccc(Cl)c(Cl)c3)ccnc2c1 [GPQF-8Q13, 7-Chloro-4-[(2E)-2-(3,4-dichlorobenzylidene)hydrazinyl]quinoline]",Activity against 49-day-old S. mansoni worms at 50 µM,S. mansoni adult worms,Inactive
same,melting point,,320 °C (dec.)
"Oc1ccc(/C=N/Nc2ccnc3cc(Cl)ccc23)c(O)c1 [GPQF-8Q14, 4-{(E)-[2-(7-chloroquinolin-4-yl)hydrazinylidene]methyl}benzene-1,3-diol]",Activity against 49-day-old S. mansoni worms at 50 µM,S. mansoni adult worms,Inactive
"C/C(=N\Nc1ccnc2cc(Cl)ccc12)c1ccccc1 [GPQF-8Q16, 7-Chloro-4-[(2E)-2-(1-phenylethylidene)hydrazinyl]quinoline]",Activity against 49-day-old S. mansoni worms at 50 µM,S. mansoni adult worms,Inactive
same,melting point,,302 to 306 °C
"C/C(=N\Nc1ccnc2cc(Cl)ccc12)c1ccc(O)cc1 [GPQF-8Q17, 4-{(1E)-1-[2-(7-chloroquinolin-4-yl)hydrazinylidene]ethyl}phenol]",Activity against 49-day-old S. mansoni worms at 50 µM,S. mansoni adult worms,Inactive
"C/C(=N\Nc1ccnc2cc(Cl)ccc12)c1ccc(C)cc1 [GPQF-8Q18, 7-Chloro-4-{(2E)-2-[1-(4-methylphenyl)ethylidene]hydrazinyl}quinoline]",Activity against 49-day-old S. mansoni worms at 50 µM,S. mansoni adult worms,Inactive
same,melting point,,310 °C (dec.)
"CCc1ccc(/C(C)=N/Nc2ccnc3cc(Cl)ccc23)cc1 [GPQF-8Q19, 7-Chloro-4-{(2E)-2-[1-(4-ethylphenyl)ethylidene]hydrazinyl}quinoline]",Activity against 49-day-old S. mansoni worms at 50 µM,S. mansoni adult worms,Inactive
same,melting point,,300 to 304 °C
"C/C(=N\Nc1ccnc2cc(Cl)ccc12)c1ccc(Cl)c(Cl)c1 [GPQF-8Q20, 7-Chloro-4-{(2E)-2-[1-(3,4-dichlorophenyl)ethylidene]hydrazinyl}quinoline]",Activity against 49-day-old S. mansoni worms at 50 µM,S. mansoni adult worms,Inactive
same,melting point,,294 to 298 °C
"C/C(CCc1ccccc1)=N\Nc1ccnc2cc(Cl)ccc12 [GPQF-8Q21, 7-Chloro-4-[(2E)-2-(4-phenylbutan-2-ylidene)hydrazinyl]quinoline]",Activity against 49-day-old S. mansoni worms at 50 µM,S. mansoni adult worms,Inactive
same,melting point,,161 to 166 °C
"CC/C(C)=N/Nc1ccnc2cc(Cl)ccc12 [GPQF-8Q22, 4-[(2E)-2-(butan-2-ylidene)hydrazinyl]-7-chloroquinoline]",Activity against 49-day-old S. mansoni worms at 50 µM,S. mansoni adult worms,Inactive
same,melting point,,71 to 74 °C
"CCC/C(C)=N/Nc1ccnc2cc(Cl)ccc12 [GPQF-8Q23, 7-Chloro-4-[(2E)-2-(pentan-2-ylidene)hydrazinyl]quinoline]",Activity against 49-day-old S. mansoni worms at 50 µM,S. mansoni adult worms,Inactive
same,melting point,,250 °C (dec.)
"C/C(=N\Nc1ccnc2cc(Cl)ccc12)C(C)(C)C [GPQF-8Q25, 7-Chloro-4-[(2E)-2-(3,3-dimethylbutan-2-ylidene)hydrazinyl]quinoline]",Activity against 49-day-old S. mansoni worms at 50 µM,S. mansoni adult worms,Inactive
same,melting point,,228 to 232 °C
"C/C(=N\Nc1ccnc2cc(Cl)ccc12)c1ccc(Cl)cc1 [GPQF-8Q26, 7-Chloro-4-{(2E)-2-[1-(4-chlorophenyl)ethylidene]hydrazinyl}quinoline]",Activity against 49-day-old S. mansoni worms at 50 µM,S. mansoni adult worms,Inactive
same,melting point,,290 to 292 °C
Cc1ccc(/C=N/NC(N)=S)cc1 [II],IC50,[2],2.5 µM
NC(=S)N/N=C/c1ccc[nH]1 [IV],IC50,[2]; unit inferred,6.8 µM
"c1ccc([C@H]2CN3CCSC3=N2)cc1 [LVM, levamisole, reference compound]",Survival percentage of C. elegans,Caenorhabditis elegans; 10 μM,0%
COc1ccc(-c2cnc(N/N=C/N3C(=O)c4ccccc4C3=O)s2)cc1 [LpQM-45],"IC50 (worm motility, pairing, oviposition study)",[3],32.09 µg/mL
"O=C(C1CCCCC1)N1CC(=O)N2CCc3ccccc3C2C1 (stereo not shown) [PZQ, praziquantel, reference compound]",SI (selectivity index),Vero cells,> 200
same,CC50 at 72 h,[1],> 200 µM
same,EC50,S. mansoni adult worms; [4],1 µM
same,EC50,S. mansoni adult worms; [5],0.7 µM
NC(=S)N/N=C/c1ccncc1 [V],IC50,[2]; unit inferred,42.4 µM
